Assay [1] in a line: Antitumor activity against human CL1-5 cells xenografted in mouse assessed as disease cure rate. The class given is functional. For orientation: In xenograft studies the graft and the host belong to different species.
Assay [2] relates to HT-29. Nature of the assay: Potency index, ratio of IC50 for paclitaxel to IC50 for test compound for cytotoxicity in human HT-29 cells. The assay is classed as functional.
In assay [3] the test system is HT-29. The assay is described as follows: Cytotoxicity in human HT-29 cells assessed as reduction in cell viability. The class given is functional, cell-based.

Structures are written as SMILES.

On to `Nc1cccc2nc3c(cc12)Cn1c-3cc2c(c1=O)COC(=O)[C@]2(O)CC(=O)OCc1ccc(O[C@@H]2O[C@H](C(=O)O)[C@@H](O)[C@H](O)[C@H]2O)c([N+](=O)[O-])c1`, for which, in assay [1], the Activity was 70 - 85%.

The term IC50 denotes the concentration that inhibits the measured activity by half. As for `CC(=O)O[C@H]1C(=O)[C@@]2(C)[C@H]([C@H](OC(=O)c3ccccc3)[C@]3(O)C[C@H](OC(=O)[C@H](OC(=O)OCCN(C)C(=O)OCc4ccc(O[C@@H]5O[C@H](C(=O)O)[C@@H](O)[C@H](O)[C@H]5O)cc4)[C@@H](NC(=O)c4ccccc4)c4ccccc4)C(C)=C1C3(C)C)[C@]1(OC(C)=O)CO[C@@H]1C[C@@H]2O`, the “Ratio IC50” value in assay [2] is recorded as 164. Also, the IC50 in assay [3] was 26 nM.

For the origin of these results see ChEMBL document CHEMBL4270505, “Towards antibody-drug conjugates and prodrug strategies with extracellular stimuli-responsive drug delivery in the tumor microenvironment for cancer therapy” (Eur J Med Chem, 2017).
